Measurements: patent publication US20260274833A1 (NiKang Therapeutics, Inc., priority 2022, published 2026)

What follows are molecules tested against T1, CDK2 (Homo sapiens, UniProt P24941) (assay: Phospho-RB measurement in OVCAR3 cells (HTRF phospho-RB cellular kit)). Settings: inhibition of RB phosphorylation at S807/811 (HTRF, TR-FRET ratio 665/620), 24 h compound treatment, 0.3 to 10,000 nM.
T1 construct: endogenous in cells; host or cells: OVCAR3 cells
Assay type: cell-based
Summary of the method: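 IC50 came from a four-parameter logistic fit of the DMSO-normalized TR-FRET ratio (665/620 nm). That ratio reflects RB phosphorylation at S807/811, read with an HTRF antibody pair 4 h after adding lysate at room temperature.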

Compound	IC50 [nM]
CC(C)(C)c1nc(-c2cccc(NS(=O)(=O)N3CCc4c(C#N)cccc43)c2F)c(-c2ccnc(NC3CC4(C3)CS(=O)(=O)C4)n2)s1 [Example 193, N-(3-(2-(tert-butyl)-5-(2-((2,2-dioxido-2-thiaspiro[3.3]heptan-6-yl)amino)-pyrimidin-4-yl)thiazol-4-yl)-2-fluoro-phenyl)-4-cyanoindoline-1-sulfonamide]	125
CC(C)(C)c1nc(-c2cccc(NS(=O)(=O)N3CCC4(CC4)C3)c2F)c(-c2ccnc(NC3CC4(C3)CN(S(C)(=O)=O)C4)n2)s1 [Example 199, N-(3-(2-(tert-butyl)-5-(2-((2-(methylsulfonyl)-2-azaspiro [3.3]heptan-6-yl)amino)pyrimidin-4-yl)thiazol-4-yl)-2-fluorophenyl)-5-azaspiro [2.4]heptane-5-sulfonamide]	> 3840
CC(C)(C)c1nc(-c2cccc(NS(=O)(=O)N3CCc4ccc(C#N)cc43)c2F)c(-c2ccnc(NC3CC4(C3)CN(S(C)(=O)=O)C4)n2)s1 [Example 200, N-(3-(2-(tert-butyl)-5-(2-((2-(methylsulfonyl)-2-azaspiro [3.3]heptan-6-yl)amino)pyrimidin-4-yl)thiazol-4-yl)-2-fluorophenyl)-6-cyanoindoline-1-sulfonamide]	247
CC(C)(C)c1nc(-c2cccc(NS(=O)(=O)N3Cc4cccc(C(F)(F)F)c4C3)c2F)c(-c2ccnc(NC3CC4(C3)CS(=O)(=O)C4)n2)s1 [Example 201, N-(3-(2-(tert-butyl)-5-(2-((2,2-dioxido-2-thiaspiro[3.3]heptan-6-yl)amino)-pyrimidin-4-yl)thiazol-4-yl)-2-fluorophenyl)-4-(trifluoromethyl)-isoindoline-2-sulfonamide]	76.3
CNC(=O)c1ccc2c(c1)N(S(=O)(=O)Nc1cccc(-c3nc(C(C)(C)C)sc3-c3ccnc(NC4CC5(C4)CS(=O)(=O)C5)n3)c1F)CC2 [Example 203, 1-(N-(3-(2-(tert-butyl)-5-(2-((2,2-dioxido-2-thiaspiro[3.3]heptan-6-yl)amino)pyrimidin-4-yl)thiazol-4-yl)-2-fluorophenyl)sulfamoyl)-N-methyl-indoline-6-carboxamide]	931
CC(C)(C)c1nc(-c2cccc(NS(=O)(=O)N3Cc4cccc(OC(F)F)c4C3)c2F)c(-c2ccnc(NC3CC4(C3)CS(=O)(=O)C4)n2)s1 [Example 205, N-(3-(2-(tert-butyl)-5-(2-((2,2-dioxido-2-thiaspiro[3.3]heptan-6-yl)amino)-pyrimidin-4-yl)thiazol-4-yl)-2-fluorophenyl)-4-(difluoromethoxy)-isoindoline-2-sulfonamide]	40.4
CC(C)(C)c1nc(-c2cccc(NS(=O)(=O)N3Cc4ccccc4C3c3ccccc3)c2F)c(-c2ccnc(NC3CC4(C3)CS(=O)(=O)C4)n2)s1 (centres unmarked) [Example 208, N-(3-(2-(tert-butyl)-5-(2-((2,2-dioxido-2-thiaspiro[3.3]heptan-6-yl)amino)-pyrimidin-4-yl)thiazol-4-yl)-2-fluoro-phenyl)-1-phenylisoindoline-2-sulfonamide]	3690
CC1(c2nc(-c3cccc(NS(=O)(=O)N4Cc5ccncc5C4)c3F)c(-c3ccnc(NC4CC5(C4)CS(=O)(=O)C5)n3)s2)CCOCC1 [Example 209, N-(3-(5-(2-((2,2-dioxido-2-thiaspiro-[3.3]-heptan-6-yl)amino)pyrimidin-4-yl)-2-(4-methyltetrahydro-2H-pyran-4-yl)thiazol-4-yl)-2-fluorophenyl)-1,3-dihydro-2H-pyrrolo [3,4-c]-pyridine-2-sulfonamide]	350

Now from value to molecule:

IC50 [nM]	Compound
88.2	CC(C)(C)c1nc(-c2cccc(NS(=O)(=O)N3CCc4ccccc43)c2F)c(-c2ccnc(NC3CC4(C3)CS(=O)(=O)C4)n2)s1 [Example 192, N-(3-(2-(tert-butyl)-5-(2-((2,2-dioxido-2-thiaspiro[3.3]heptan-6-yl)amino)-pyrimidin-4-yl)thiazol-4-yl)-2-fluoro-phenyl)indoline-1-sulfonamide]
1850	CCN(C)S(=O)(=O)Nc1cccc(-c2nc(C(C)(C)C)sc2-c2ccnc(NC3CC4(C3)CS(=O)(=O)C4)n2)c1F [Example 194, N-(3-(2-(tert-butyl)-5-(2-((2,2-dioxido-2-thiaspiro[3.3]heptan-6-yl)amino)-pyrimidin-4-yl)thiazol-4-yl)-2-fluoro-phenyl)-N-methyl-N-ethylamine-sulfonamide]
320	CC(C)(C)c1nc(-c2cccc(NS(=O)(=O)N3CCc4cc(C#N)ccc43)c2F)c(-c2ccnc(NC3CC4(C3)CS(=O)(=O)C4)n2)s1 [Example 195, N-(3-(2-(tert-butyl)-5-(2-((2,2-dioxido-2-thiaspiro[3.3]heptan-6-yl)amino)-pyrimidin-4-yl)thiazol-4-yl)-2-fluoro-phenyl)-5-cyanoindoline-1-sulfonamide]
1080	CN(C)Cc1cccc2c1CN(S(=O)(=O)Nc1cccc(-c3nc(C(C)(C)C)sc3-c3ccnc(NC4CC5(C4)CS(=O)(=O)C5)n3)c1F)C2 [Example 197, N-(3-(2-(tert-butyl)-5-(2-((2,2-dioxido-2-thiaspiro[3.3]heptan-6-yl)amino)-pyrimidin-4-yl)thiazol-4-yl)-2-fluoro-phenyl)-4-((dimethylamino)methyl)-isoindoline-2-sulfonamide]
667	CN(C)C(=O)c1ccc2c(c1)N(S(=O)(=O)Nc1cccc(-c3nc(C(C)(C)C)sc3-c3ccnc(NC4CC5(C4)CS(=O)(=O)C5)n3)c1F)CC2 [Example 198, 1-(N-(3-(2-(tert-butyl)-5-(2-((2,2-dioxido-2-thiaspiro[3.3]heptan-6-yl)amino)pyrimidin-4-yl)thiazol-4-yl)-2-fluorophenyl)sulfamoyl)-N,N-dimethylindoline-6-carboxamide]
86.2	COc1cccc2c1CN(S(=O)(=O)Nc1cccc(-c3nc(C(C)(C)C)sc3-c3ccnc(NC4CC5(C4)CS(=O)(=O)C5)n3)c1F)C2 [Example 202, N-(3-(2-(tert-butyl)-S-(2-((2,2-dioxido-2-thiaspiro[3.3]heptan-6-yl)amino)-pyrimidin-4-yl)thiazol-4-yl)-2-fluoro-phenyl)-4-methoxyisoindoline-2-sulfonamide]
69.2	CCOc1cccc2c1CN(S(=O)(=O)Nc1cccc(-c3nc(C(C)(C)C)sc3-c3ccnc(NC4CC5(C4)CS(=O)(=O)C5)n3)c1F)C2 [Example 204, N-(3-(2-(tert-butyl)-5-(2-((2,2-dioxido-2-thiaspiro[3.3]heptan-6-yl)amino)-pyrimidin-4-yl)thiazol-4-yl)-2-fluoro-phenyl)-4-ethoxyisoindoline-2-sulfonamide]
619	CN(C)c1cccc2c1CN(S(=O)(=O)Nc1cccc(-c3nc(C(C)(C)C)sc3-c3ccnc(NC4CC5(C4)CS(=O)(=O)C5)n3)c1F)C2 [Example 206, N-(3-(2-(tert-butyl)-S-(2-((2,2-dioxido-2-thiaspiro[3.3]heptan-6-yl)amino)-pyrimidin-4-yl)thiazol-4-yl)-2-fluoro-phenyl)-4-(dimethylamino) isoindoline-2-sulfonamide]
199	CNc1cccc2c1CN(S(=O)(=O)Nc1cccc(-c3nc(C(C)(C)C)sc3-c3ccnc(NC4CC5(C4)CS(=O)(=O)C5)n3)c1F)C2 [Example 207, N-(3-(2-(tert-butyl)-5-(2-((2,2-dioxido-2-thiaspiro[3.3]heptan-6-yl)amino)-pyrimidin-4-yl)thiazol-4-yl)-2-fluorophenyl)-4-(methylamino)-isoindoline-2-sulfonamide]
